In ChEMBL document CHEMBL1201862, “PubChem BioAssay data set” (2004):
The source made the active and inactive calls. No stated cut-off is given here; in the data, actives have a measured IC50 and inactives only a lower limit.

Target: Envelope glycoprotein gp160 (Human immunodeficiency virus 1, UniProt Q6QLK5)
Assay: cell-free HIV fusion peptide-binding blockers – biochemical, uHTS, fluorescence dequenching, […] (AID 1986)

Chain of Envelope glycoprotein gp160 (Q6QLK5 whole entry, the tested form may be a part): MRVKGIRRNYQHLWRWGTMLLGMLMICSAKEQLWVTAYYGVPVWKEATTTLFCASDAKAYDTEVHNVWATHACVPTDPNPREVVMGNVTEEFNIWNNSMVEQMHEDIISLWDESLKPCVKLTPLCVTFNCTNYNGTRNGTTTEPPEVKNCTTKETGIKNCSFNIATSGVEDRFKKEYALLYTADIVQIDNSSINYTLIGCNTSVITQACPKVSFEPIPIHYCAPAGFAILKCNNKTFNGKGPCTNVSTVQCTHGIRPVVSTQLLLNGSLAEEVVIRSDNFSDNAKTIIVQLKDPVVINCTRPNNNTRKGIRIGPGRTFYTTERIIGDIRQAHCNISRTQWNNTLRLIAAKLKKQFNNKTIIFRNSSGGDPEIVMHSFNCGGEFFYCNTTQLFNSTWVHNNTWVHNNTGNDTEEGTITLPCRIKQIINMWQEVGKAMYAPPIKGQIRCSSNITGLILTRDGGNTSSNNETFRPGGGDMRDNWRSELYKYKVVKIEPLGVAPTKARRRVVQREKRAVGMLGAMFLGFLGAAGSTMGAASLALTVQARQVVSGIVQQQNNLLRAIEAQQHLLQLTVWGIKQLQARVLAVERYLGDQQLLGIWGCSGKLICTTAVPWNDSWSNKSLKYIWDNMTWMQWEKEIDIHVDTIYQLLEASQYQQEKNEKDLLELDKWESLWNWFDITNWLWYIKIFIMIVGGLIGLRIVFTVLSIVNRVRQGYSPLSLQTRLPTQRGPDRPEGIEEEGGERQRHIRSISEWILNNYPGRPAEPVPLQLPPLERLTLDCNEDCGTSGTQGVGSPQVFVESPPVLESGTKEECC

N#Cc1c(-c2ccccc2)nc(SCc2cccc(C(F)(F)F)c2)[nH]c1=O
IC50: 10.4 µM (active)

O=[N+]([O-])c1cc(Cl)cc(/C=N/NC(=S)Nc2cc(S(=O)(=O)N3CCOCC3)ccc2Cl)c1O
IC50: 9.41 µM (active)
